Legend:
[1] = tested on: histomonad field strain; test: Cage experiments; histomonad activity in turkeys; format: in vivo; conditions: day -4 to +14; for Average lesions in the appendix / Infection-related lesions in the liver: score 0=no lesions, 4=severe lesions
Method: Histomonad-free male turkeys aged 10 days received nifurtimox or the comparative compound nitarson in the concentration given in “ppm” together with the feed from day −4 (=4 days prior to infection) to day 14. Infection is carried out on day 0, 10 animals are kept per group cage. 1 to 3 such groups are employed per dose.
The infection is carried out with a histomonad field strain which is passaged in the laboratory and stored in liquid nitrogen. On day 0, in each case 5 animals of a cage (with the exception of the noninfected control) are infected intracloacally with 250 000 histomonads in each case 1 ml of Dwyer's medium (=direct infection). After a few days, these infected animals excrete fresh histomonads and thus transmit the pathogen to the remaining 5 animals of the cage (=indirect infection).
To assess the activity, the criteria of McDougald and Hu 2001 (7) are taken into consideration: • the infection-caused mortality • the weight gain from the beginning to the end of the experiment • feed consumption • feed conversion • macroscopic assessment of the infection-related lesions in the appendices (caecum) and in the liver. In this assessment, score 0=no lesions and score 4=severe lesions.

[2] = tested on: Heterakis spumosa; test: Anthelmintic activity against Heterakis spumosa in mice; format: in vivo; conditions: Heterakis spumosa (mouse); treated on four consecutive days 35 days post-infection; worms counted day 7 after treatment
Method: Male mice (strain Bor CFW, body weight between 25 and 30 g) are kept in Makrolon cages (3 animals/cage) and fed ad lib with water and SNIFF rat food (10 mm pellets). Mice are infected with Heterakis spumosa by oral administration of 90 embryonated eggs. The eggs had been obtained from female worms which had been isolated from the mices colon 40 days post-infection. The eggs were incubated for a further 3 weeks at 37° C. 35 days post-infection, the mice were treated with the respective dose of PF1022A or emodepside on four consecutive days. PF1022A is suspended in Cremophor EL. On day 7 after the treatment, the mice are sacrificed, the ileum/caecum/colon region is removed, and the worms are counted with the naked eye. The ratio of the number of expelled worms in percent of the total number of worms in untreated, infected control animals is defined as the measure for the anthelmintic activity.

[3] = tested on: Heterakis spumosa; conditions: murine nematode Heterakis spumosa; oral dose; refs (13, 15); cited from earlier work
[4] = tested on: Ascaridia galli; conditions: cited from earlier work
[5] = direct infection no, nitarsone 187.5 ppm in feed, study of Table 1
[6] = direct infection no, nitarsone 187.5 ppm in feed, study of Table 2
[7] = direct infection yes, nitarsone 187.5 ppm in feed, study of Table 1
[8] = direct infection yes, nitarsone 187.5 ppm in feed, study of Table 2
[9] = nitarsone 187.5 ppm in feed, study of Table 1
[10] = nitarsone 187.5 ppm in feed, study of Table 2
[11] = direct infection no, nifurtimox 30 ppm in feed, study of Table 1
[12] = direct infection no, nifurtimox 60 ppm in feed, study of Table 1
[13] = direct infection no, nifurtimox 100 ppm in feed, study of Table 2
[14] = direct infection no, nifurtimox 120 ppm in feed, study of Table 1
[15] = direct infection no, nifurtimox 200 ppm in feed, study of Table 1
[16] = direct infection no, nifurtimox 200 ppm in feed, study of Table 2
[17] = direct infection no, nifurtimox 300 ppm in feed, study of Table 2
[18] = direct infection no, nifurtimox 400 ppm in feed, study of Table 2
[19] = direct infection yes, nifurtimox 30 ppm in feed, study of Table 1
[20] = direct infection yes, nifurtimox 60 ppm in feed, study of Table 1
[21] = direct infection yes, nifurtimox 100 ppm in feed, study of Table 2
[22] = direct infection yes, nifurtimox 120 ppm in feed, study of Table 1
[23] = direct infection yes, nifurtimox 200 ppm in feed, study of Table 1
[24] = direct infection yes, nifurtimox 200 ppm in feed, study of Table 2
[25] = direct infection yes, nifurtimox 300 ppm in feed, study of Table 2
[26] = direct infection yes, nifurtimox 400 ppm in feed, study of Table 2
[27] = nifurtimox 30 ppm in feed, study of Table 1
[28] = nifurtimox 60 ppm in feed, study of Table 1
[29] = nifurtimox 100 ppm in feed, study of Table 2
[30] = nifurtimox 120 ppm in feed, study of Table 1
[31] = nifurtimox 200 ppm in feed, study of Table 1
[32] = nifurtimox 200 ppm in feed, study of Table 2
[33] = nifurtimox 300 ppm in feed, study of Table 2
[34] = nifurtimox 400 ppm in feed, study of Table 2

## O=[N+]([O-])c1ccc([As](=O)(O)O)cc1 [Nita., nitarsone]
[1]; [5]
  Mean weight gain (g) between day 0 and the time of death: 782 g
  Average lesions in the appendix: 0.00
  Infection-related lesions in the liver: 0.00
[1]; [6]
  Mean weight gain (g) between day 0 and the time of death: 725 g
  Average lesions in the appendix: 0.29
  Infection-related lesions in the liver: 0.21
[1]; [7]
  Mean weight gain (g) between day 0 and the time of death: 541 g
  Average lesions in the appendix: 2.26
  Infection-related lesions in the liver: 0.13
[1]; [8]
  Mean weight gain (g) between day 0 and the time of death: 426 g
  Average lesions in the appendix: 3.07
  Infection-related lesions in the liver: 0.79
[1]; [9]
  Mean feed consumption between day 0 and day 14: 11.64 kg
  Mean feed conversion between day 0 and day 14: 1.77
  Mortality caused by histomoniasis: 1
[1]; [10]
  Mean feed consumption between day 0 and day 14: 9.82 kg
  Mean feed conversion between day 0 and day 14: 1.79
  Mortality caused by histomoniasis: 2

## CC1CS(=O)(=O)CCN1N=Cc1ccc([N+](=O)[O-])o1 (stereo not drawn) [nifurtimox]
[1]; [11]
  Mean weight gain (g) between day 0 and the time of death: 730 g
  Average lesions in the appendix: 0.29
  Infection-related lesions in the liver: 0.29
[1]; [12]
  Mean weight gain (g) between day 0 and the time of death: 838 g
  Average lesions in the appendix: 0.00
  Infection-related lesions in the liver: 0.00
[1]; [13]
  Mean weight gain (g) between day 0 and the time of death: 581 g
  Average lesions in the appendix: 1.08
  Infection-related lesions in the liver: 0.58
[1]; [14]
  Mean weight gain (g) between day 0 and the time of death: 744 g
  Average lesions in the appendix: 0.53
  Infection-related lesions in the liver: 0.27
[1]; [15]
  Mean weight gain (g) between day 0 and the time of death: 744 g
  Average lesions in the appendix: 0.47
  Infection-related lesions in the liver: 0.13
[1]; [16]
  Mean weight gain (g) between day 0 and the time of death: 525 g
  Average lesions in the appendix: 1.80
  Infection-related lesions in the liver: 0.73
[1]; [17]
  Mean weight gain (g) between day 0 and the time of death: 750 g
  Average lesions in the appendix: 0.79
  Infection-related lesions in the liver: 0.07
[1]; [18]
  Mean weight gain (g) between day 0 and the time of death: 832 g
  Average lesions in the appendix: 0.27
  Infection-related lesions in the liver: 0.00
[1]; [19]
  Mean weight gain (g) between day 0 and the time of death: 235 g
  Average lesions in the appendix: 3.73
  Infection-related lesions in the liver: 2.53
[1]; [20]
  Mean weight gain (g) between day 0 and the time of death: 304 g
  Average lesions in the appendix: 3.53
  Infection-related lesions in the liver: 2.53
[1]; [21]
  Mean weight gain (g) between day 0 and the time of death: 135 g
  Average lesions in the appendix: 3.79
  Infection-related lesions in the liver: 2.00
[1]; [22]
  Mean weight gain (g) between day 0 and the time of death: 182 g
  Average lesions in the appendix: 4.00
  Infection-related lesions in the liver: 1.80
[1]; [23]
  Mean weight gain (g) between day 0 and the time of death: 264 g
  Average lesions in the appendix: 3.80
  Infection-related lesions in the liver: 1.33
[1]; [24]
  Mean weight gain (g) between day 0 and the time of death: 270 g
  Average lesions in the appendix: 3.67
  Infection-related lesions in the liver: 1.33
[1]; [25]
  Mean weight gain (g) between day 0 and the time of death: 450 g
  Average lesions in the appendix: 2.53
  Infection-related lesions in the liver: 0.40
[1]; [26]
  Mean weight gain (g) between day 0 and the time of death: 691 g
  Average lesions in the appendix: 1.20
  Infection-related lesions in the liver: 0.00
[1]; [27]
  Mean feed consumption between day 0 and day 14: 9.00 kg
  Mean feed conversion between day 0 and day 14: 1.88
  Mortality caused by histomoniasis: 5
[1]; [28]
  Mean feed consumption between day 0 and day 14: 9.68 kg
  Mean feed conversion between day 0 and day 14: 1.70
  Mortality caused by histomoniasis: 6
[1]; [29]
  Mean feed consumption between day 0 and day 14: 6.69 kg
  Mean feed conversion between day 0 and day 14: 2.32
  Mortality caused by histomoniasis: 13
[1]; [30]
  Mean feed consumption between day 0 and day 14: 8.70 kg
  Mean feed conversion between day 0 and day 14: 1.88
  Mortality caused by histomoniasis: 5
[1]; [31]
  Mean feed consumption between day 0 and day 14: 9.59 kg
  Mean feed conversion between day 0 and day 14: 1.91
  Mortality caused by histomoniasis: 4
[1]; [32]
  Mean feed consumption between day 0 and day 14: 9.14 kg
  Mean feed conversion between day 0 and day 14: 2.33
  Mortality caused by histomoniasis: 4
[1]; [33]
  Mean feed consumption between day 0 and day 14: 10.40 kg
  Mean feed conversion between day 0 and day 14: 1.83
  Mortality caused by histomoniasis: 2
[1]; [34]
  Mean feed consumption between day 0 and day 14: 11.79 kg
  Mean feed conversion between day 0 and day 14: 1.55
  Mortality caused by histomoniasis: 0

## CC(C)CC1C(=O)OC(Cc2ccc(N3CCOCC3)cc2)C(=O)N(C)C(CC(C)C)C(=O)OC(C)C(=O)N(C)C(CC(C)C)C(=O)OC(Cc2ccc(N3CCOCC3)cc2)C(=O)N(C)C(CC(C)C)C(=O)OC(C)C(=O)N1C [Emodepside, cyclo[(R)-lactoyl-N-methyl-L-leucyl-(R)-3-(p-morpholinophenyl)lactoyl-N-methyl-L-leucyl-(R)-lactoyl-N-methyl-L-leucyl-(R)-3-(p-morpholinophenyl)lactoyl-N-methyl-L-leucyl]]
[2]
  Dose with full activity: 1 to 10 mg/kg
[3]
  Dose at which active against Heterakis spumosa: 1 to 10 mg/kg

## CC(C)CC1C(=O)OC(Cc2ccccc2)C(=O)N(C)C(CC(C)C)C(=O)OC(C)C(=O)N(C)C(CC(C)C)C(=O)OC(Cc2ccccc2)C(=O)N(C)C(CC(C)C)C(=O)OC(C)C(=O)N1C (stereo not drawn) [PF1022A]
[2]
  Dose with full activity: 50 mg/kg
[3]
  Dose at which active against Heterakis spumosa: 50 mg/kg
[4]; Ascaridia galli (chicken)
  Dose with full activity: 2 mg/kg
[4]; Ascaridia galli in chickens, ref (16)
  Dose at which the compound acts against Ascaridia galli: 2 mg/kg

Reference: patent publication US8440613B2, “Controlling diseases caused by trichomonadida” (Bayer Intellectual Property GmbH, priority 2008, dated 2013)
